Where two headings read alike, the source gives them in different places. Marks after values point to notes of the source that are not given here. No end group written: not given here.
Experiments:
Format in all cases: cell-based
Candida albicans = test system: Candida albicans
Method: (§1) Staphylococcus aureus was strain RN6390, Pseudomonas aeruginosa was strain PA01, Escherichia coli was strain MC4100, Streptococcus faecalis was ATCC 8043 and Candida albicans was a clinical isolate from the Presbyterian Hospital.
B. Radial diffusion assay
The fungus is grown for 3 hrs from an overnight culture in Sabouraud dextrose broth, centrifuged at 10,000 g for 10 min, washed twice in NaPB pH 5.5, and resuspended in NaPB (pH 5.5) at a final concentration of 4×10^7/ml. A 0.1 ml aliquot of this fungal suspension (4×10^6 CFU) is added to 10 ml of autoclaved and cooled to (42° C.) NaPB pH 5.5 containing 1% w/v of low electroendosmosis type agarose (Sigma). After mixing the fungus in, the agar is poured into Lab-Tek square Petri dishes to form a uniform 1 mm thick layer. Wells with a 3 mm diameter are punched in and filled with 5 μl of control or sample, the plates are incubated for 3 hrs at 37° C. and overlaid with 10 ml of sterile agar maintained at 42° C. The overlay agar is 2× Sabouraud agar. After incubation of 18-24 hrs at 37° C., the diameter of the clear zone surrounding the wells containing an antifungal agent is measured.
(§2) Measurement of the antimicrobial activity of human hemoglobin, its heme-free α and β chains, CNBr-derived fragments of the α and β chains, and synthetic peptides derived therefrom were determined by radial diffusion assay and in some cases by plate assay. […] MIC is estimated by linear extrapolation of data points to an intercept with the x axis.
(§3) Each assay was performed with 3 experimental runs except where indicated. […] The assay method was patterned after that of Lee et al (23).

Escherichia coli MC4100 [1] = test system: Escherichia coli MC4100
Source text: as §1
D. Radial diffusion assay for antibiotic activity against Escherichia coli MC4100
A single colony of Escherichia coli MC4100 is inoculated into trypicase soy broth and grown to mid-exponential phase (OD600−0.7). The cultures are washed in NaPB pH 5.5 and dissolved to a final concentration of 5×10^7CFU/ml. A 0.2 ml aliquot of this bacterial suspension (10^7CFU/ml) is added to 10 ml of autoclaved and cooled (to 42° C.) NaPB containing 0.02% Bovine Serum Albumin (BSA) and 0.02% Triton X100., 1% w/v of low electroendosmosis type agarose (Sigma). After mixing the bacteria in, the agarose is poured into Lab-Tek square Petri dishes to form a uniform thick layer. Wells with a 2.7 mm diameter are punched in and filled with 4.5 ul of control or sample, the plates are incubated for 3 hours at 37° C., and overlaid with 10 ml of sterile agar maintained at 42° C. The overlay agar is 6% (w/v) TSB and 1% w/v Bacto-agar. After incubation for 18-24 hours at 37° C., the diameter of the clear zone surrounding the wells containing an antibacterial agent is measured.
as §2, §3

[2] = test system: Staphylococcus aureus RN6390; experiment: Radial diffusion assay for antibiotic activity against Staphylococcus aureus RN6390; conditions: pH 5.5, radial diffusion
Source text: Staphylococcus aureus was strain RN6390, Pseudomonas aeruginosa was strain PA01, Escherichia coli was strain MC4100, Streptococcus faecalis was ATCC 8043 and Candida albicans was a clinical isolate from the Presbyterian Hospital. B. Radial diffusion assay for antibiotic activity against Staphylococcus aureus RN6390 A single colony of Staphylococcus aureus RN6390 is inoculated into CYGP broth and grown to mid-exponential phase (OD600=0.7). The cultures are washed in NaPB pH 5.5 and dissolved to a final concentration of 5×10^7 CFU/ml. A 0.2 ml aliquot of this bacterial suspension (10^7 CFU) is added to 10 ml of autoclaved and cooled (to 42° C.) NaPB buffer, 1% w/v of low electroendosmosis type agarose (Sigma). After mixing the bacteria in, the agarose is poured in Lab-Tek square Petri dishes to form a uniform thick layer. Wells with a 2.7 mm diameter are punched in and filled with 4.5 ul of control or sample, the plates are incubated for 3 hours at 37° C., and overlaid with 10 ml of sterile agar maintained at 42° C. The overlay agar is 2× CYGP broth and 1% w/v Bacto-agar. After incubation for 18-24 hours at 37° C., the diameter of the clear zone surrounding the wells containing an antibacterial agent is measured. Measurement of the antimicrobial activity of human hemoglobin, its heme-free α and β chains, CNBr-derived fragments of the α and β chains, and synthetic peptides derived therefrom were determined by radial diffusion assay and in some cases by plate assay. […] MIC is estimated by linear extrapolation of data points to an intercept with the x axis. Each assay was performed with 3 experimental runs except where indicated. The radial diffusion assay is reliable and gives consistent results when used with the purified or semipurified compositions of the invention. The assay method was patterned after that of Lee et al (23).

[3] = test system: Streptococcus faecalis ATCC 8043; experiment: Radial diffusion assay for antibiotic activity against Streptococcus faecalis ATCC 8043
Method: as §1
E. Radial diffusion assay for antibiotic activity against Streptococcus faecalis ATCC 8043
A single colony is inoculated in 10 mL of TSB overnight shaking at 37C. Approximately 0.3 ml is added to 10 mL fresh TSB and shaken at 37° C. This is allowed to grow to mid-log phase (OD600=0.6). The culture is washed 2× in NaPB pH 5.5 by spinning at 5000 rpm. for 10 min. OD is rechecked after washing to determine exact bacterial concentration. The washed bacteria are added at a concentration of 10^7/plate to the lower layer (NaPB pH 5.5/1% Low Electroendosmosis agarose). Dilutions of Hemoglobin dilutions in NaPB pH 5.5 are added to the plate, allowed to diffuse in the layer, and incubated in wet box at 37C for 3 hours. Following the incubation, 10 mL of nutrient medium, 6% TSB and 1% Bactoagar, is added as a top layer and plates are incubated in the wet box overnight at […].
as §2
Each assay was performed with 3 experimental runs except where indicated. The radial diffusion assay is reliable and gives consistent results when used with the purified or semipurified compositions of the invention. The assay method was patterned after that of Lee et al (23).

[4] = test system: Pseudomonas aeroginosa PA01; experiment: Radial diffusion assay for antibiotic activity against Pseudomonas aeroginosa PA01; conditions: Pseudomonas aeruginosa
Method: Staphylococcus aureus was strain RN6390, Pseudomonas aeruginosa was strain PA01, Escherichia coli was strain MC4100, Streptococcus faecalis was ATCC 8043 and Candida albicans was a clinical isolate from the Presbyterian Hospital. C. Radial diffusion assay for antibiotic activity against Pseudomonas aeroginosa PA01 A single colony of Pseudomonas aeroginosa PA01 is inoculated into trypticase soy broth and grown to mid-exponential phase (OD600−0.7). […] A 0.2 ml aliquot of this bacterial suspension (10^7CFU/ml) is added to 10 ml of autoclaved and cooled (to 42° C.) NaPB buffer, 1% w/v of low electroendosmosis type agarose (Sigma). After mixing the bacteria in, the agarose is poured in Lab-Tek square Petri dishes to form a uniform thick layer. Wells with a 2.7 mm diameter are punched in and filled with 4.5 ul of control or sample, the plates are incubated for 3 hours at 37° C., and overlaid with 10 ml of sterile agar maintained at 42° C. The overlay agar is 6% (w/v) TSB and 1% w/v Bacto-agar. After incubation for 18-24 hours at37° C., the diameter of the clear zone surrounding the wells containing an antibacterial agent is measured. Measurement of the antimicrobial activity of human hemoglobin, its heme-free α and β chains, CNBr-derived fragments of the α and β chains, and synthetic peptides derived therefrom were determined by radial diffusion assay and in some cases by plate assay. […] MIC is estimated by linear extrapolation of data points to an intercept with the x axis. Each assay was performed with 3 experimental runs except where indicated. The radial diffusion assay is reliable and gives consistent results when used with the purified or semipurified compositions of the invention. The assay method was patterned after that of Lee et al (23).

Escherichia coli MC4100 [5] = conditions: pH 7.4, radial diffusion
[6] = Candida albicans, pH 5.5, radial diffusion
[7] = Streptococcus faecalis, pH 5.5, radial diffusion
[8] = Escherichia coli, pH 5.5, radial diffusion
[9] = Streptacoccus faecalis, Table 2 CNBr cleavage products, pH not given in table (method NaPB pH 5.5)
[10] = Escherichia coli, Table 2 CNBr cleavage products, pH not given in table (method NaPB pH 5.5)
[11] = Candida albicans, Table 2 CNBr cleavage products, pH not given in table (method NaPB pH 5.5)

Row | Substance | Minimum Inhibitory Concentration (MIC) [2] [µg/mL] | Minimum Inhibitory Concentration (MIC) (Candida albicans; [6]) [µg/mL] | Minimum Inhibitory Concentration (MIC) [3, 7] | Minimum Inhibitory Concentration (MIC) ([4]; pH 5.5, radial diffusion) [µg/mL] | Minimum Inhibitory Concentration (MIC) (Escherichia coli MC4100 [1]; [8]) [µg/mL] | Minimum Inhibitory Concentration (MIC) [3, 9] [µg/mL] | Minimum Inhibitory Concentration (MIC) (Escherichia coli MC4100 [1]; [10]) [µg/mL] | Minimum Inhibitory Concentration (MIC) (Candida albicans; [11]) [µg/mL] | further results
1 | GNPKVKAHGKKVLGAFS [Peptide I] |  |  |  |  |  |  |  |  | Minimum Inhibitory Concentration (MIC) (Candida albicans; 3 h, pH 5.5): 10 µg/mL; Minimum Inhibitory Concentration (MIC) (Escherichia coli MC4100 [1]; MC4100, pH 5.5): 15 µg/mL
2 | Hemoglobin: Human hemoglobin (MW=64,500), two α and two β chains with four heme groups; crude Hb purchased from Sigma Chemicals | 4 to 6 | 50 to 70 | 200 to 1000 µg/mL | 5 | 1 to 5 |  |  |  | Minimum Inhibitory Concentration (MIC) ([4]; pH 7.4, radial diffusion): 50 µg/mL; Minimum Inhibitory Concentration (MIC) (Escherichia coli MC4100 [5]): 35 to 100 µg/mL
3 | α chains: Heme-free α chain of human hemoglobin, 141 amino acid residues, SEQ ID NO:10, separated by C4 reverse-phase HPLC | 300 | 7 | 3* μg/ml | 50 | 1 to 2 |  |  |  | 
4 | α-1: CNBr cleavage fragment of human hemoglobin α chain, residues 1-32, SEQ ID NO:7 |  |  |  |  |  | 100 | >100 |  | 
5 | α-2: CNBr cleavage fragment of human hemoglobin α chain, residues 33-76, SEQ ID NO:8 |  |  |  |  |  |  | >100 |  | 
6 | α-3: CNBr cleavage fragment of human hemoglobin α chain, residues 77-141, SEQ ID NO:3 |  |  |  |  |  | 7 | 5 to 8 | 10 to 50 | 
7 | β chains: Heme-free β chain of human hemoglobin, 146 amino acid residues, SEQ ID NO:1, separated by C4 reverse-phase HPLC | 10 | >50 | 20 µg/mL | 40 to 60 | 1.5 to 5 |  |  |  | Minimum Inhibitory Concentration (MIC) (Escherichia coli MC4100 [5]): 10 to 30 µg/mL
8 | β-1: CNBr cleavage fragment of human hemoglobin β chain, residues 1-55, SEQ ID NO:9 |  |  |  |  |  | >50 | >100 | 25 | 
9 | β-2: CNBr cleavage fragment of human hemoglobin β chain, residues 56-146, SEQ ID NO:2 |  |  |  |  |  | 8 | 5 | 25 | activity against C. albicans (in words) (Candida albicans; C. albicans): highly active; activity against E. coli (in words) (Escherichia coli MC4100 [1]; E. coli): highly active

Source: US6337314B1, “Mammalian-derived peptides for the treatment of microbial infections” (Theragem, Inc., priority 1997, dated 2002)
